Laboratory results as given in patent US11807835B2, “Detergent compositions containing a stabilized enzyme by phosphonates” (ECOLAB USA INC., priority 2016, dated 2023).

Test system: protease
Test: Protease activity retention in detergent use solution (4000 ppm, 5 GPG water; peptidyl substrate, glycine buffer pH 9.0)
Type: biochemical
Conditions: for Relative Protease Enzyme Activity: use solution at 120° F.; for enzyme activity of amine salt of the phosphonate versus non-neutralized phosphonate: phosphonate neutralized with an amine, such as triethanolamine
Procedure: The enzyme activities in the detergents with different phosphonate levels were tested at 4000 ppm in 5 grains per gallon (GPG) water at 120° F. with various time points collected up to 4 hours, after a use solution was generated from the detergent composition. During the tests, the samples at different time points were collected and immediately frozen in an acetone/dry ice bath and stored in −80° C. before the activity of the enzyme was evaluated. For the use of such an assay, t=0 min was the reference point for 100% enzyme activity.
Assays of enzyme activity in formulations (% retention) were conducted to simulate a presoak condition in a beaker using the chemistry, temperature, and pH conditions relevant to manual warewash or presoak applications. Enzyme activity is an indicator of the stability of the enzyme in the detergent, specifically in an aqueous use solution within a sump (which is under conditions of high pH, temperature and dilution).
The analysis by protease assay was conducted as follows. For the assays, a detergent composition was used to generate an aqueous use solution evaluated herein.
Enzyme activity under presoak or manual warewash conditions was traced quantitatively using a standard protease assay. Samples were prepared under bench top conditions, whereby the use solution from a detergent composition or detergent was obtained and maintained at a presoak or manual warewash temperature in a stirring water bath. After the time course for assessing enzyme stability is initiated, aliquots were taken at various time points and flash-frozen. A time=0 sample was prepared for each series by dissolving the detergent formulation at room temperature, mixing thoroughly, and flash freezing. Samples were thawed and diluted as necessary in an assay buffer usually for use in the protease assay. A glycine buffer at pH 9.0 is used here. The assay monitored the direct reaction of the protease on a small, commercially available peptidyl substrate, with liberation of the product providing correlation to the active enzyme content. The product was detected using a plate reader with an appreciable dynamic range (upper absorbance limit of the instrument >3.5). Enzyme activity levels were assessed relative to a calibration curve with average values for replicate tests used to map protease stability under presoak or manual warewash use conditions. Enzyme retention at each time point was calculated as the % enzyme activity relative to the time=0 sample.

[1] = All Ash formula, phosphonate 0.3 wt-%, time 0 min
[2] = All Ash formula, phosphonate 0.3 wt-%, time 5 min
[3] = All Ash formula, phosphonate 0.3 wt-%, time 10 min
[4] = All Ash formula, phosphonate 0.3 wt-%, time 20 min
[5] = All Ash formula, phosphonate 0.3 wt-%, time 40 min
[6] = All Ash formula, phosphonate 0.3 wt-%, time 60 min
[7] = All Ash formula, phosphonate 0.3 wt-%, time 90 min
[8] = All Ash formula, phosphonate 0.3 wt-%, time 120 min
[9] = All Ash formula, phosphonate 0.3 wt-%, time 150 min
[10] = All Ash formula, phosphonate 0.3 wt-%, time 180 min
[11] = All Ash formula, phosphonate 0.3 wt-%, time 210 min
[12] = All Ash formula, phosphonate 0.3 wt-%, time 240 min
[13] = base formula, phosphonate 0.3 wt-%, time 0 min
[14] = base formula, phosphonate 0.3 wt-%, time 5 min
[15] = base formula, phosphonate 0.3 wt-%, time 10 min
[16] = base formula, phosphonate 0.3 wt-%, time 20 min
[17] = base formula, phosphonate 0.3 wt-%, time 40 min
[18] = base formula, phosphonate 0.3 wt-%, time 60 min
[19] = base formula, phosphonate 0.3 wt-%, time 90 min
[20] = base formula, phosphonate 0.3 wt-%, time 120 min
[21] = base formula, phosphonate 0.3 wt-%, time 150 min
[22] = base formula, phosphonate 0.3 wt-%, time 180 min
[23] = base formula, phosphonate 0.3 wt-%, time 210 min
[24] = base formula, phosphonate 0.3 wt-%, time 240 min
[25] = base formula, phosphonate 0.6 wt-%, time 0 min
[26] = base formula, phosphonate 0.6 wt-%, time 5 min
[27] = base formula, phosphonate 0.6 wt-%, time 10 min
[28] = base formula, phosphonate 0.6 wt-%, time 20 min
[29] = base formula, phosphonate 0.6 wt-%, time 40 min
[30] = base formula, phosphonate 0.6 wt-%, time 60 min
[31] = base formula, phosphonate 0.6 wt-%, time 90 min
[32] = base formula, phosphonate 0.6 wt-%, time 120 min
[33] = base formula, phosphonate 0.6 wt-%, time 150 min
[34] = base formula, phosphonate 0.6 wt-%, time 180 min
[35] = base formula, phosphonate 0.6 wt-%, time 210 min
[36] = base formula, phosphonate 0.6 wt-%, time 240 min
[37] = base formula, phosphonate at 0.1% elemental phosphorus, time 0 min
[38] = base formula, phosphonate at 0.1% elemental phosphorus, time 5 min
[39] = base formula, phosphonate at 0.1% elemental phosphorus, time 10 min
[40] = base formula, phosphonate at 0.1% elemental phosphorus, time 20 min
[41] = base formula, phosphonate at 0.1% elemental phosphorus, time 40 min
[42] = base formula, phosphonate at 0.1% elemental phosphorus, time 60 min
[43] = base formula, phosphonate at 0.1% elemental phosphorus, time 90 min
[44] = base formula, phosphonate at 0.1% elemental phosphorus, time 120 min
[45] = base formula, phosphonate at 0.1% elemental phosphorus, time 150 min
[46] = base formula, phosphonate at 0.1% elemental phosphorus, time 180 min
[47] = base formula, phosphonate at 0.1% elemental phosphorus, time 210 min
[48] = base formula, phosphonate at 0.1% elemental phosphorus, time 240 min

Compound: CC(O)(P(=O)(O)O)P(=O)(O)O [HEDP, 1-hydroxy ethylidene-1,1-diphosphonic acid]
- Relative Protease Enzyme Activity [1]: 100.00%
- Relative Protease Enzyme Activity [2]: 8.63%
- Relative Protease Enzyme Activity [3]: 3.25%
- Relative Protease Enzyme Activity [4]: 0.61%
- Relative Protease Enzyme Activity [5]: −1.32%
- Relative Protease Enzyme Activity [6]: −1.66%
- Relative Protease Enzyme Activity [7]: −0.97%
- Relative Protease Enzyme Activity [8]: −1.23%
- Relative Protease Enzyme Activity [9]: −0.85%
- Relative Protease Enzyme Activity [10]: −0.93%
- Relative Protease Enzyme Activity [11]: −0.42%
- Relative Protease Enzyme Activity [12]: −0.42%
- Relative Protease Enzyme Activity [13]: 100.00%
- Relative Protease Enzyme Activity [14]: 52.21%
- Relative Protease Enzyme Activity [15]: 32.95%
- Relative Protease Enzyme Activity [16]: 15.91%
- Relative Protease Enzyme Activity [17]: 8.68%
- Relative Protease Enzyme Activity [18]: 5.52%
- Relative Protease Enzyme Activity [19]: 4.10%
- Relative Protease Enzyme Activity [20]: 3.10%
- Relative Protease Enzyme Activity [21]: 2.39%
- Relative Protease Enzyme Activity [22]: 1.65%
- Relative Protease Enzyme Activity [23]: 1.36%
- Relative Protease Enzyme Activity [24]: 1.20%
- Relative Protease Enzyme Activity [25]: 100.00%
- Relative Protease Enzyme Activity [26]: 69.69%
- Relative Protease Enzyme Activity [27]: 51.90%
- Relative Protease Enzyme Activity [28]: 27.67%
- Relative Protease Enzyme Activity [29]: 12.41%
- Relative Protease Enzyme Activity [30]: 7.62%
- Relative Protease Enzyme Activity [31]: 4.70%
- Relative Protease Enzyme Activity [32]: 2.94%
- Relative Protease Enzyme Activity [33]: 1.79%
- Relative Protease Enzyme Activity [34]: 0.92%
- Relative Protease Enzyme Activity [35]: 0.71%
- Relative Protease Enzyme Activity [36]: 0.45%
- Relative Protease Enzyme Activity [37]: 100.00%
- Relative Protease Enzyme Activity [38]: 77.74%
- Relative Protease Enzyme Activity [39]: 53.71%
- Relative Protease Enzyme Activity [40]: 23.58%
- Relative Protease Enzyme Activity [41]: 9.12%
- Relative Protease Enzyme Activity [42]: 5.36%
- Relative Protease Enzyme Activity [43]: 3.76%
- Relative Protease Enzyme Activity [44]: 2.44%
- Relative Protease Enzyme Activity [45]: 1.45%
- Relative Protease Enzyme Activity [46]: 0.74%
- Relative Protease Enzyme Activity [47]: 0.64%
- Relative Protease Enzyme Activity [48]: 0.45%
- enzyme activity of amine salt of the phosphonate versus non-neutralized phosphonate: much improved enzyme activity

Compound: O=C(O)CCC(CC(=O)O)(C(=O)O)P(=O)(O)O (centres unmarked) [PBTC, Phosphonebutane tricarboxylic acid]
- Relative Protease Enzyme Activity [1]: 100.00%
- Relative Protease Enzyme Activity [2]: 11.99%
- Relative Protease Enzyme Activity [3]: 3.18%
- Relative Protease Enzyme Activity [4]: −0.81%
- Relative Protease Enzyme Activity [5]: −1.79%
- Relative Protease Enzyme Activity [6]: −1.94%
- Relative Protease Enzyme Activity [7]: −1.57%
- Relative Protease Enzyme Activity [8]: −1.11%
- Relative Protease Enzyme Activity [9]: −1.04%
- Relative Protease Enzyme Activity [10]: −2.62%
- Relative Protease Enzyme Activity [11]: −3.07%
- Relative Protease Enzyme Activity [12]: −2.02%
- Relative Protease Enzyme Activity [13]: 100.00%
- Relative Protease Enzyme Activity [14]: 52.04%
- Relative Protease Enzyme Activity [15]: 30.98%
- Relative Protease Enzyme Activity [16]: 14.75%
- Relative Protease Enzyme Activity [17]: 7.33%
- Relative Protease Enzyme Activity [18]: 5.15%
- Relative Protease Enzyme Activity [19]: 4.01%
- Relative Protease Enzyme Activity [20]: 2.91%
- Relative Protease Enzyme Activity [21]: 2.21%
- Relative Protease Enzyme Activity [22]: 1.52%
- Relative Protease Enzyme Activity [23]: 1.01%
- Relative Protease Enzyme Activity [24]: 0.63%
- Relative Protease Enzyme Activity [25]: 100.00%
- Relative Protease Enzyme Activity [26]: 60.27%
- Relative Protease Enzyme Activity [27]: 35.81%
- Relative Protease Enzyme Activity [28]: 16.27%
- Relative Protease Enzyme Activity [29]: 7.44%
- Relative Protease Enzyme Activity [30]: 4.84%
- Relative Protease Enzyme Activity [31]: 2.96%
- Relative Protease Enzyme Activity [32]: 1.76%
- Relative Protease Enzyme Activity [33]: 1.32%
- Relative Protease Enzyme Activity [34]: 0.91%
- Relative Protease Enzyme Activity [35]: 0.70%
- Relative Protease Enzyme Activity [36]: 0.39%
- Relative Protease Enzyme Activity [37]: 100.00%
- Relative Protease Enzyme Activity [38]: 86.68%
- Relative Protease Enzyme Activity [39]: 55.40%
- Relative Protease Enzyme Activity [40]: 23.91%
- Relative Protease Enzyme Activity [41]: 8.20%
- Relative Protease Enzyme Activity [42]: 4.68%
- Relative Protease Enzyme Activity [43]: 2.99%
- Relative Protease Enzyme Activity [44]: 2.04%
- Relative Protease Enzyme Activity [45]: 1.54%
- Relative Protease Enzyme Activity [46]: 1.01%
- Relative Protease Enzyme Activity [47]: 0.73%
- Relative Protease Enzyme Activity [48]: 0.42%
- enzyme activity of amine salt of the phosphonate versus non-neutralized phosphonate: much improved enzyme activity
